Patent US10662203B2, “Pyrido[2,3-b]indole compounds for the treatment and prophylaxis of bacterial infection” (Hoffmann-La Roche Inc., priority 2017, dated 2020)

Experiments:
Experiment in all cases: 50% growth inhibitory concentration (IC50) determination assay
Format in all cases: cell-based
[1] = system: A. baumannii (ATCC17978); settings: Acinetobacter baumannii, ATCC17978, A. baumannii ATCC17978; Iso-Sensitest broth; 0.098 = detection limit
Description: (§1) Stock compounds in DMSO were serially two-fold diluted (range from 50 to 0.097 μM final concentration) in 384 wells microtiter plates and inoculated with 49 μL the bacterial suspension in Iso-Sensitest broth medium to have a final cell concentration of ˜5×10^5 CFU/mL in a final volume/well of 50 μL/well. Microtiter plates were incubated at 35±2° C. Bacterial cell growth was determined with the measurement of optical density at λ=600 nm each 20 minutes over a time course of 16 h. […] GP-6 (Example 4.131 disclosed in WO 2012/125746 A1) was used as the reference compound in Table 6-8. […] The data of IC50 over S. aureus (ATCC29213), K. pneumoniae (ATCC10031), and A. baumannii (ATCC17978) are illustrated in Table 6.

[2] = system: K. pneumoniae (ATCC10031); settings: Klebsiella pneumoniae, Iso-Sensitest broth, 0.098 = detection limit
Description: as §1

[3] = system: S. aureus (ATCC29213); settings: Staphylococcus aureus, Iso-Sensitest broth, 0.098 = detection limit
Description: as §1

Row | SMILES | IC50 [1] [µM] | IC50 [2] [µM] | IC50 [3] [µM]
1 | CCn1cc(C(=O)O)c(=O)c2cc(-c3cnc4[nH]c5c(NC)cc(F)c(F)c5c4c3N(C)CCOC)cnc21 [Example 1.06] | 0.849 | 0.17 | < 0.098
2 | CNc1cc(F)cc2c1[nH]c1ncc(-c3cnc4c(c3)c(=O)c(C(=O)O)cn4C)c(N3CCC(F)(F)C3)c12 [Example 1.16] | 0.308 | < 0.098 | < 0.098
3 | CNc1cc(F)cc2c1[nH]c1ncc(-c3cnc4c(c3)c(=O)c(C(=O)O)cn4C(C)(C)CN3CCCC3)c(N(C)C)c12 [Example 1.17] | 0.515 | 0.101 | < 0.098
4 | CCn1cc(C(=O)O)c(=O)c2cc(-c3cnc4[nH]c5c(NC)cc(F)cc5c4c3N(C)C)cnc21 [Example 1.19] | 0.283 | 0.145 | < 0.098
5 | CCn1cc(C(=O)O)c(=O)c2cc(-c3cnc4[nH]c5c(NC)c(F)c(F)cc5c4c3N(C)C)cnc21 [Example 1.20] | 0.209 | 0.141 | < 0.098
6 | CNc1cc(F)c(F)c2c1[nH]c1ncc(-c3cnc4c(c3)c(=O)c(C(=O)O)cn4CCOC)c(N(C)C)c12 [Example 1.24] | 0.519 | 0.238 | < 0.098
7 | CNc1cc(F)c(F)c2c1[nH]c1ncc(-c3cnc4c(c3)c(=O)c(C(=O)O)cn4CCN3CCN(C)CC3)c(N(C)C)c12 [Example 1.29] | 0.405 | < 0.098 | < 0.098
8 | CNc1cc(F)c(F)c2c1[nH]c1ncc(-c3cnc4c(c3)c(=O)c(C(=O)O)cn4Cc3ccncc3)c(N(C)C)c12 [Example 1.30] | 0.242 | – | < 0.098
9 | CNc1cc(F)c(F)c2c1[nH]c1ncc(-c3cnc4c(c3)c(=O)c(C(=O)O)cn4CC3CCCO3)c(N3CCOCC3)c12 (stereo not shown) [Example 1.39] | 0.363 | 0.19 | < 0.098
10 | CNc1cc(F)cc2c1[nH]c1ncc(-c3cnc4c(c3)c(=O)c(C(=O)O)cn4C)c(N3CCCC3)c12 [Example 1.46] | 0.277 | < 0.098 | < 0.098
11 | CNc1cc(F)cc2c1[nH]c1ncc(-c3cnc4c(c3)c(=O)c(C(=O)O)cn4C)c(N3CCOCC3)c12 [Example 1.48] | 0.11 | < 0.098 | < 0.098
12 | CNc1cc(F)cc2c1[nH]c1ncc(-c3cnc4c(c3)c(=O)c(C(=O)O)cn4C)c(N3CCCOCC3)c12 [Example 1.60] | 0.248 | < 0.098 | < 0.098
13 | CNc1cc(F)cc2c1[nH]c1ncc(-c3cnc4c(c3)c(=O)c(C(=O)O)cn4C)c(N3CCSCC3)c12 [Example 1.66] | 0.415 | < 0.098 | < 0.098
14 | CNc1cc(F)cc2c1[nH]c1ncc(-c3cnc4c(c3)c(=O)c(C(=O)O)cn4CC(C)(C)N(C)C)c(N3CCOCC3)c12 [Example 1.69] | 0.438 | < 0.098 | < 0.098
15 | CNc1cc(F)cc2c1[nH]c1ncc(-c3cnc4c(c3)c(=O)c(C(=O)O)cn4C(C)CN(C)C)c(N3CCOCC3)c12 (stereo not shown) [Example 1.70] | 0.619 | < 0.098 | < 0.098
16 | CNc1cc(Cl)cc2c1[nH]c1ncc(-c3cnc4c(c3)c(=O)c(C(=O)O)cn4C)c(N3CC4[C@H](CC[C@H]4N(C)C)C3)c12 (stereo partly shown) [Example 1.285] | 0.253 | – | –
17 | CNc1cc(Cl)cc2c1[nH]c1ncc(-c3cnc4c(c3)c(=O)c(C(=O)O)cn4C)c(N3CC[C@H]4CN(C)C[C@H]43)c12 [Example 3.11A] | 0.122 | – | –
18 | CNc1cc(Cl)cc2c1[nH]c1ncc(-c3cnc4c(c3)c(=O)c(C(=O)O)cn4NC)c(N3CC[C@H]4CN(C)C[C@H]43)c12 [Example 3.12A] | 0.081 | – | –
19 | CNc1cc(Cl)cc2c1[nH]c1ncc(-c3cnc4c(c3)c(=O)c(C(=O)O)cn4C)c(N3C[C@H]4CC[C@H](N(C)C)[C@H]4C3)c12 [Example 3.20A] | 0.149 | – | –
20 | CNc1cc(Cl)cc2c1[nH]c1ncc(-c3cnc4c(c3)c(=O)c(C(=O)O)cn4C)c(N3C[C@@H]4CC[C@H](N(C)C)[C@@H]4C3)c12 [Example 3.20B] | 0.252 | – | –

Further lines, results first:

Row | IC50 [1] [µM] | IC50 [2] [µM] | IC50 [3] [µM] | SMILES
21 | < 0.098 | < 0.098 | < 0.098 | CNc1cc(F)c(F)c2c1[nH]c1ncc(-c3cnc4c(c3)c(=O)c(C(=O)O)cn4C)c(N(C)C)c12 [Example 1.01, 6-[4-(Dimethylamino)-5,6-difluoro-8-(methylamino)-9H-pyrido[2,3-b]indol-3-yl]-1-methyl-4-oxo-1,8-naphthyridine-3-carboxylic acid]
22 | 0.155 | < 0.098 | < 0.098 | CNc1cc(F)c(F)c2c1[nH]c1ncc(-c3cnc4c(c3)c(=O)c(C(=O)O)cn4C)c(N3CCOCC3)c12 [Example 1.08]
23 | 0.818 | 0.104 | < 0.098 | CNc1cc(F)c(F)c2c1[nH]c1ncc(-c3cnc4c(c3)c(=O)c(C(=O)O)cn4C)c(N3CCNC(C(F)(F)F)C3)c12 (stereo not shown) [Example 1.09]
24 | 0.192 | – | – | CNc1cc(F)c(F)c2c1[nH]c1ncc(-c3cnc4c(c3)c(=O)c(C(=O)O)cn4C)c(N3CCOC(COC)C3)c12 (stereo not shown) [Example 1.10]
25 | 0.326 | 0.132 | < 0.098 | CCn1cc(C(=O)O)c(=O)c2cc(-c3cnc4[nH]c5c(NC)cc(F)c(F)c5c4c3N(C)C)cnc21 [Example 1.18]
26 | 0.469 | 0.154 | < 0.098 | CNc1cc(F)c(F)c2c1[nH]c1ncc(-c3cnc4c(c3)c(=O)c(C(=O)O)cn4C3CCOC3)c(N(C)C)c12 (stereo not shown) [Example 1.21]
27 | 0.252 | < 0.098 | < 0.098 | CNc1cc(F)c(F)c2c1[nH]c1ncc(-c3cnc4c(c3)c(=O)c(C(=O)O)cn4C)c(N(C)CCOC)c12 [Example 1.33]
28 | 0.147 | < 0.098 | < 0.098 | CNc1cc(F)c(F)c2c1[nH]c1ncc(-c3cnc4c(c3)c(=O)c(C(=O)O)cn4C)c(N3CCO[C@@H](C)C3)c12 [Example 1.36]
29 | 0.364 | 0.264 | < 0.098 | CNc1cc(F)c(F)c2c1[nH]c1ncc(-c3cnc4c(c3)c(=O)c(C(=O)O)cn4C)c(N3CCC(OC)CC3)c12 [Example 1.40]
30 | 0.112 | < 0.098 | < 0.098 | CNc1cc(F)cc2c1[nH]c1ncc(-c3cnc4c(c3)c(=O)c(C(=O)O)cn4C)c(N3CCO[C@H](C)C3)c12 [Example 1.49]
31 | 0.112 | < 0.098 | < 0.098 | CNc1cc(F)cc2c1[nH]c1ncc(-c3cnc4c(c3)c(=O)c(C(=O)O)cn4C)c(N3CCO[C@@H](C)C3)c12 [Example 1.50]
32 | 0.378 | < 0.098 | < 0.098 | CNc1cc(F)c(F)c2c1[nH]c1ncc(-c3cnc4c(c3)c(=O)c(C(=O)O)cn4C3CCNC3)c(N3CCCC3)c12 (stereo not shown) [Example 1.65]
33 | < 0.098 | < 0.098 | < 0.098 | CNc1cc(F)c(F)c2c1[nH]c1ncc(-c3cnc4c(c3)c(=O)c(C(=O)O)cn4NC)c(N(C)C)c12 [Example 1.72]
34 | 0.238 | < 0.098 | < 0.098 | CCN(CC)CCn1cc(C(=O)O)c(=O)c2cc(-c3cnc4[nH]c5c(NC)cc(F)c(F)c5c4c3N3CCOCC3)cnc21 [Example 1.73]
35 | 0.355 | – | – | CNc1cc(F)c(F)c2c1[nH]c1ncc(-c3cnc4c(c3)c(=O)c(C(=O)O)cn4C)c(N3CCC(N(C)C4CC4)C3)c12 (stereo not shown) [Example 1.116]
36 | 0.164 | – | – | CNc1cc(F)c(Cl)c2c1[nH]c1ncc(-c3cnc4c(c3)c(=O)c(C(=O)O)cn4C)c(N(C)C)c12 [Example 1.117]
37 | 0.521 | – | – | CNc1cc(F)cc2c1[nH]c1ncc(-c3cnc4c(c3)c(=O)c(C(=O)O)cn4C)c(N3CCC(N(C)C4CC4)C3)c12 (stereo not shown) [Example 1.118]
38 | 0.302 | – | < 0.098 | CNc1cc(F)c(F)c2c1[nH]c1ncc(-c3cnc4c(c3)c(=O)c(C(=O)O)cn4C)c(N3CCC(O)(C(F)(F)F)C3)c12 (stereo not shown) [Example 1.129]
39 | 0.189 | – | – | CNc1cc(F)c(F)c2c1[nH]c1ncc(-c3cnc4c(c3)c(=O)c(C(=O)O)cn4C)c(N3C[C@H](F)[C@@H](N(C)C)C3)c12 [Example 1.159]
40 | 0.201 | – | – | CNc1cc(F)c(F)c2c1[nH]c1ncc(-c3cnc4c(c3)c(=O)c(C(=O)O)cn4NC)c(N3CC[C@@H](N(C)C)C3)c12 [Example 1.257]
41 | 0.502 | – | – | CNc1cc(F)c(F)c2c1[nH]c1ncc(-c3cnc4c(c3)c(=O)c(C(=O)O)cn4C)c(N3CC4C(O)CO[C@@H]4C3)c12 (stereo partly shown) [Example 1.287]
42 | 0.269 | – | – | CNc1cc(F)c(F)c2c1[nH]c1ncc(-c3cnc4c(c3)c(=O)c(C(=O)O)cn4C)c(N3CC4[C@H](CC[C@@H]4N(C)C)C3)c12 (stereo partly shown) [Example 1.288]
43 | 0.393 | – | – | CNc1cc(F)c(F)c2c1[nH]c1ncc(-c3cnc4c(c3)c(=O)c(C(=O)O)cn4C)c(N3CCN[C@H](C(F)(F)F)C3)c12 [Example 4.01A, (S)-6-(5,6-Difluoro-8-(methylamino)-4-(3-(trifluoromethyl)piperazin-1-yl)-9H-pyrido[2,3-b]indol-3-yl)-1-methyl-4-oxo-1,4-dihydro-1,8-naphthyridine-3-carboxylic acid]
44 | 0.352 | – | – | CNc1cc(F)c(F)c2c1[nH]c1ncc(-c3cnc4c(c3)c(=O)c(C(=O)O)cn4C)c(N3CCN[C@@H](C(F)(F)F)C3)c12 [Example 4.01B, (R)-6-(5,6-Difluoro-8-(methylamino)-4-(3-(trifluoromethyl)piperazin-1-yl)-9H-pyrido[2,3-b]indol-3-yl)-1-methyl-4-oxo-1,4-dihydro-1,8-naphthyridine-3-carboxylic acid]
